Marks after values point to notes of the source that are not given here.
Key:
[1] = system: MCF7 breast cancer model; assay: In vivo efficacy, HR+/HER2− MCF7 breast cancer model (Example 4); parameters: species or system NSG mice; details: MCF7, Day 29; PO BID: PF-07104091 120 mpk, PF-07220060 60 mpk, PF-06873600 30 mpk, palbociclib 10 mpk; fulvestrant 10 mpk SC
Description: (§1) Female NSG mice (Jackson Lab) were subcutaneously implanted with fragment (27 mm^3 to 64 mm^3 size) into the dorsal region. All mice for HCC1428, MCF7 and ST941 PBR studies were supplemented with 8.5 μg/mL estradiol water (β-Estradiol Sigma-Aldrich, cat #E2758-5G) and gave ad libitum till end of study. For the in vivo efficacy studies, tumor volume and body weights were measured twice a week. Tumor volume was calculated using the [(Length×Width×Width)/2)] formula. TGI was calculated as 100*(1−ΔT/ΔC). The ΔC (ΔT) was obtained by subtracting the mean tumor burden in the vehicle (treated) group on the first day of treatment (Day 0) from the mean tumor burden in vehicle (treated) group on the assessment day. Statistical analysis was performed using ANCOVA when the mean tumor volume in vehicle treated mice reached tumor cutoff size.
(§2) The MCF7 model was established by implanting donor tumor fragments into recipient mice. To establish the MCF7 donor mice, tumor cells (5×10^6 cell/mouse with 50% Cultrex® Basement Membrane Matrix) were subcutaneously implanted in female NSG mice. Once reaching a range of 700 to 800 mm^3, donor tumors were subsequently transplanted into secondary recipient mice for a study expansion. […] PF-07104091 (lot 022), PF-07220060 (lot CPo126812-01-SY-5700-01), PF-06873600 (lot 022) and PD-0332991 (lot GR08498) were administered (PO) BID (7 hr apart) while fulvestrant (lot 20160224-2) at 10 mg/kg, SC twice in the first week, then weekly afterwards. All mice received treatment continuously until Day 29. TGI was assessed on Day 29 post first dose

[2] = system: HCC1428 breast cancer model; assay: In vivo efficacy, HR+/HER2− HCC1428 breast cancer model (Example 4); parameters: species or system NSG mice; details: HCC1428, Day 42; PO BID: PF-07104091 120 mpk, PF-07220060 60 mpk, PF-06873600 30 mpk, palbociclib 10 mpk; fulvestrant 10 mpk SC
Description: as §1
as §2, with “The HCC1428” for “The MCF7”, “implanting passage 1” for “implanting donor”, “the HCC1428” for “the MCF7”, “Day 42.” for “Day 29.”, “Day 42” for “Day 29”, “first dose.” for “first dose”

[3] = system: ST941 PBR PDX model; assay: In vivo efficacy, palbociclib-resistant ST941 PBR PDX model (Example 4); parameters: species or system NSG mice; details: ST941PBR, Day 28, PO BID: PF-07104091 120 mpk, PF-07220060 60 mpk, PF-06873600 30 mpk, palbociclib 10 mpk, fulvestrant 10 mpk SC
Description: as §1
(§3) We established model in house by continuous treatment of the ST941 PBR tumor bearing mice with PD-0332991 at 50 mg/kg, PO QD plus fulvestrant at 10 mg/kg, SC twice in the first week, then weekly thereafter. To propagate donors for the TGI study, tumors were transplanted to recipient mice. One week after the re-implantation, the recipient mice received continuous treatment with palbociclib plus fulvestrant (dosing schedule described above). After 1 to 2 serial in vivo propagation with the same treatment regimen, the resistant tumors in the range of 700 to 800 mm^3 were re-implanted for a study expansion. The remaining tumor fragments were viably frozen for future use.
The live donor mice were established by implanting ST941 PBR (p13) tumor fragments. Once reaching a range of 700 to 800 mm^3, the donor tumors were subsequently transplanted into secondary recipient mice for a study expansion. To maintain the resistant clones, the ST941 PBR tumor bearing mice were treated with PD-0332991 at 50 mg/kg, PO. QD plus fulvestrant at 10 mg/kg, SC twice in the first week, then weekly afterwards for 10 weeks. The treatment was initiated one week after the implant until day of randomization for study enrollment. […] PF-07104091 (lot 021), PF-07220060 (lot CPo126812-01-SY-5700-01), PF-06873600 (lot 022) and PD-0332991 (lot GR08498) were administered (PO) BID (7 hr apart) while fulvestrant (lot 20160224-2) at 10 mg/kg, SC twice in the first week, then weekly afterwards. All mice received treatment continuously until Day 28. TGI was assessed on Day 28 post first dose.

[4] = system: NCI-H1792 lung adenocarcinoma (LUAD) cells; assay: Spheroid growth inhibition (SGI) assay, NCI-H1792; assay type: cell-based; details: NCI-H1792 spheroids; 30 nM palbociclib, 300 nM PF-07220060, 300 nM PF-07104091; 14 days
Description: (§4) NCI-H1792 and NCI-H23 lung adenocarcinoma (LUAD) cells lines were obtained from ATCC and maintained in RPMI 1640 medium supplemented with 10% fetal bovine serum and penicillin-streptomycin as per ATCC guidelines. Cells were maintained in humidified incubator at 37° C. with 5% CO2.
(§5) Spheroid assays were performed in 96 well ultralow attachment plates (ULA-96U) from Nexcelom & Thermo Fisher Scientific. […] To aid spheroid formation, dispensed cells were centrifuged at 220×g for 6 minutes in the ultralow attachment plates and allowed to form compact spheroids for 4 days prior to the initiation of treatment. […] DMSO (0.01%) was used as the vehicle control. DMSO and all compounds were diluted in cell medium. Medium and compounds were replenished twice per week, with 3 and 4-day intervals. Replenishment was executed by aspirating 150 μL of medium per well without disturbing the spheroid and then adding the same volume of premixed medium/compound solution to spheroids. Spheroid diameter was quantified immediately following each medium change twice a week (on every 3rd or 4th day) throughout the duration of the assay.
(§6) Average diameters of tumor spheroids were plotted in GraphPad Prism 8 and the AUC calculated. AUC baseline was determined by the average tumor spheroid diameter at Day 0 in the vehicle (DMSO) controls. Spheroid growth inhibition, or SGI, was calculated as follows: SGI=(1−AUC treatment/AUC DMSO)×100%. SGI for all treatment arms was derived at the timepoint when the vehicle (DMSO) treated spheroids reach their maximal diameter (usually close to 1 mm but this can differ among cell lines); this corresponds to the last time point taken for the vehicle (DMSO) treated spheroids. SEM was calculated based on n=10 to 12 wells per test group.
(§7) Growth of lung adenocarcinoma multicellular tumor spheroids (MCTS) was monitored over time to assess: (i) amplitude of response (SGI) and (ii) duration of response to the CDK4 inhibitor PF-07220060 as a single agent, and in combination with the CDK2 inhibitor PF-07104091.

[5] = system: NCI-H23 lung adenocarcinoma (LUAD) cells; assay: Spheroid growth inhibition (SGI) assay, NCI-H23; assay type: cell-based; details: NCI-H23 spheroids; 30 nM palbociclib, 300 nM PF-07220060, 300 nM PF-07104091; 14 days
Description: as §4, §5, §6, §7

[6] = system: T47D breast cancer model; assay: In vivo efficacy, HR+/HER2− T47D breast cancer model (Example 3); parameters: species or system NSG mice; details: Day 41, PO BID: PF-07104091 150 mpk, PF-07220060 60 mpk, palbociclib 10 mpk
Description: as §1, with “T47D, HCC1428” for “HCC1428, MCF7”
(§8) The T47D model was established by implanting passage 3 tumor fragments into recipient mice. To establish the T47D donor mice, tumor cells (5×10^6 cell/mouse with 50% Cultrex® Basement Membrane Matrix) were subcutaneously implanted in female NSG mice. Once reaching a range of 700 to 800 mm^3, donor tumors were subsequently transplanted into secondary recipient mice for a study expansion. […] PF-07104091 (lot 016), PF-07220060 (lot 019) and PD-0332991 (lot GR08498) were administered (PO.) BID (7 hr apart). All mice received treatment continuously until Day 41. TGI was assessed on Day 41 post first dose.

[7] = system: HCC1428 breast cancer model; assay: In vivo efficacy, HR+/HER2− HCC1428 breast cancer model (Example 3); parameters: species or system NSG mice; details: HCC1428, Day 42; PO BID: PF-07104091 150 mpk, PF-07220060 60 mpk, palbociclib 10 mpk
Description: as §1, with “T47D, HCC1428” for “HCC1428, MCF7”
as §8, with “The HCC1428” for “The T47D”, “passage 4” for “passage 3”, “the HCC1428” for “the T47D”, “Day 42.” for “Day 41.”, “Day 42” for “Day 41”

[8] = system: ST941 PBR PDX model; assay: In vivo efficacy, palbociclib-resistant ST941 PBR PDX model (Example 3); parameters: species or system NSG mice; details: ST941PBR, Day 28; PO BID: PF-07104091 150 mpk, PF-07220060 60 mpk, palbociclib 10 mpk; fulvestrant 10 mpk SC 2x week 1 then weekly
Description: as §1, with “T47D, HCC1428” for “HCC1428, MCF7”
as §3
The live donor mice were established by implanting ST941 PBR (p11) tumor fragments. Once reaching a range of 700 to 800 mm^3, the donor tumors were subsequently transplanted into secondary recipient mice for a study expansion. To maintain the resistant clones, the ST941 PBR tumor bearing mice were treated with PD-0332991 at 50 mg/kg, PO. QD plus fulvestrant at 10 mg/kg, SC twice in the first week, then weekly afterwards for 10 weeks. The treatment was initiated one week after the implant until day of randomization for study enrollment. […] TGI was assessed on Day 28 post first dose.

Row | SMILES | TGI % [1] | TGI % [2] | TGI % [3] | TGI % ([3]; listed as PF-0873600) | SGI (%) [4] | SGI (%) [5] | TGI % [6] | TGI % [7] | TGI % [8]
1 | C[C@@]1(O)CCC[C@H]1n1c(=O)c(C(F)F)cc2cnc(NC3CCN(S(C)(=O)=O)CC3)nc21 [PF-06873600, reference compound] | 70% | 97% | 47^* % | 47% | – | – | – | – | –
2 | CC(=O)c1c(C)c2cnc(Nc3ccc(N4CCNCC4)cn3)nc2n(C2CCCC2)c1=O [palbociclib, reference compound] | – | – | – | – | 54% | 9% | 72^* % | 44^* % | 15%

— US20250041277A1, “METHODS AND DOSING REGIMENS COMPRISING A CDK2 INHIBITOR AND A CDK4 INHIBITOR FOR TREATING CANCER” (PFIZER INC., priority 2021, published 2025)
